According to patent US4610994A, “1,2,3-triazole anticonvulsant drugs” (priority 1984, dated 1986):
“And” between values parts separate entries of the source, which are not always exact repeats. Equal values may be shown once. “Also recorded” adds a separate entry of the source. Read-outs that look alike come from different tables or passages of the source.

How the values were obtained:
[1] = test system: maximal electro-shock seizure (MES) and subcutaneous pentylenetetrazole (Metrazole) seizure threshold (scMet); assay: Phase I anticonvulsant screening (MES test and scMet test); assay type: in vivo, mouse; details: for signs of neurological deficit: at effective dose levels (Class I) or 300 mg/kg (8, 13); for Anticonvulsant Activity Group Classification: mouse, MES and scMet tests, doses up to 300 mg/kg; for protection: 300 mg/kg
[2] = test system: subcutaneous Bicuculline seizures; assay: subcutaneous Bicuculline Seizure Threshold Test (sc Bic) in mice; assay type: in vivo, mice (male albino, CF No. 1); details: mice i.p., Compound 10 up to 300 mg/kg
Protocol: (§1) All animals were allowed free access to both food (S/L Custom Lab Diet-7) and water, except when they were removed from their cages for the experimental procedure.
(§2) The drugs were administered either orally or intraperitoneally in a volume of 0.01 ml/g body weight in mice and 0.04 ml/10 g in rats. All tests were conducted at the previously determined time of peak drug effect.
(§3) The profile of anticonvulsant activity for each substance was established by five tests: one electrical and four chemical. The electrical test employed was the maximal electroshock seizure pattern test. […] Except for the sc Strych Test, these tests measure the ability of anticonvulsants to afford complete protection against threshold seizures induced by the subcutaneous injection of the CD97 of the convulsant agent.
(§4) All convulsants were administered subcutaneously into a loose fold of skin on the back of the neck in a volume of 0.01 ml/g body weight in mice; Metrazol was injected in a volume of 0.02 ml/10 g body weight in rats. The convulsant drugs were administered at the previously determined time of peak anticonvulsant action of the drug under study. […] Except for strychnine, absence of a five-second episode of clonic spasms (threshold seizure) was taken as protection. In the case of strychnine, complete abolition of the hindleg tonic extension was taken as protection.

[3] = test system: subcutaneous Picrotoxin seizures; assay: subcutaneous Picrotoxin Seizure Threshold Test (sc Pic) in mice; assay type: in vivo, mice (male albino, CF No. 1); details: mice i.p., Compound 10 up to 300 mg/kg
Protocol: as §1, §2, §3, §4

[4] = test system: subcutaneous Strychnine seizures; assay type: in vivo, mice (male albino, CF No. 1); details: for animals protected in the sc Strych test: mice, i.p.; for effectiveness by the sc Strych test: mice i.p., Compound 10 up to 300 mg/kg
Protocol: as §1, §2, §3, §4

[5] = loss of righting reflex (HD50) in mice i.p.; parameters: species or system mice (male albino, CF No. 1)
Protocol: (§5) The profile of toxicity for each test drug was established by the following procedures: Firstly, the minimal neurotoxic dose (TD50) was determined by the rotorod procedure at the time of peak neurotoxic effect. When a normal mouse is placed on a knurled rod one inch in diameter rotating at a speed of six rpm it can maintain its equilibrium for long periods of time. Neurological deficit is indicated by inability of the mouse to maintain its equilibrium for one minute in each of three trials on this rotating rod. […] The HD50 represents the median dose at which 50% of animals lose their righting reflex.

in vivo [6] = details: mouse, po
Protocol: as §1, §2
(§6) The profile of toxicity for each test drug was established by the following procedures: Firstly, the minimal neurotoxic dose (TD50) was determined by the rotorod procedure at the time of peak neurotoxic effect. When a normal mouse is placed on a knurled rod one inch in diameter rotating at a speed of six rpm it can maintain its equilibrium for long periods of time. Neurological deficit is indicated by inability of the mouse to maintain its equilibrium for one minute in each of three trials on this rotating rod. Neurological deficit in rats is indicated by ataxia, loss of placing response and muscle tone.

in vivo [7] = details: mouse, ip
[8] = test system: maximal electroshock seizures; assay: maximal electroshock seizure (MES) pattern test in mice; details: for ED97: MES; for TPE: test not specified
Protocol: as §1, §2, §3

[9] = test system: subcutaneous Metrazol seizures; assay: subcutaneous Metrazol Seizure Threshold Test (sc Met) in mice; details: for ED97: sc Met
Protocol: as §1, §2, §3, §4

[10] = Phase III toxicity profile (overt signs and symptoms) in mice i.p.; details: for Profile of acute toxicity, 1 x TD50: 1TD50; for Profile of acute toxicity, 2 x TD50: 2TD50; for Profile of acute toxicity, 4 x TD50: 4TD50
Protocol: as §5

[11] = assay type: in vivo; details: mice, subcutaneous
Description: as §3

[12] = sc convulsant dose CD97 in rats; assay type: in vivo; details: Rattus norvegicus, subcutaneous
Description: as §3

[13] = test system: maximal electroshock seizures; assay: maximal electroshock seizure (MES) pattern test in rats
Protocol: as §1, §2, §3

[14] = test system: subcutaneous Metrazol seizures; assay: subcutaneous Metrazol Seizure Threshold Test (sc Met) in rats; details: for ED97: oral, sc Met
Protocol: as §1, §2, §3, §4

[15] = minimal neurotoxicity (ataxia, loss of placing response and muscle tone) in rats; details: rats, oral
Protocol: as §1, §2, §6

[16] = rats, oral, higher doses; cited from earlier work
in vivo [17] = details: rat, po
Protocol: as §1, §2, §6

[18] = mice, i.p., 95% confidence interval
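Wherever Rotorod TD50 is given: mice on rotorod: neurological deficit scored when the animal cannot keep balance for 1 min in every one of three trials on a 1-inch knurled rod turning at 6 rpm.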
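Wherever time of peak toxicity, rotorod is given: mice on rotorod: neurological deficit scored when the animal cannot keep balance for 1 min in every one of three trials on a 1-inch knurled rod turning at 6 rpm.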

## Clc1ccc(-n2nncc2-c2ccccc2)cc1 [Compound 1, 1-(p-Chlorophenyl)-5-phenyl-1H--1,2,3-triazole]
[1]
  signs of neurological deficit: do not exhibit significant signs of neurological deficit

## Brc1ccc(-n2nncc2-c2ccccc2)cc1 [Compound 2, 1-(p-Bromophenyl)-5-phenyl-1H--1,2,3-triazole]
[1]
  signs of neurological deficit: do not exhibit significant signs of neurological deficit

## c1ccc(-n2nncc2-c2ccncc2)cc1 [Compound 3, 1-Phenyl-5-(4-pyridyl)-1H--1,2,3-triazole]
[1]
  signs of neurological deficit: do not exhibit significant signs of neurological deficit

## Fc1ccc(-n2nncc2-c2ccncc2)cc1 [Compound 4, 1-(p-Fluorophenyl)-5-(4-pyridyl)-1H--1,2,3-triazole]
[1]
  Anticonvulsant Activity Group Classification: II (Class II compounds show anticonvulsant activity at doses greater than 100 mg/kg or show activity at 100 mg/kg which is not reinforced by similar activity at 300 mg/kg)

## Cc1ccc(-n2nncc2-c2ccncc2)cc1 [Compound 5, 1-(p-Tolyl)-5-(4-pyridyl)-1H--1,2,3-triazole]
[1]
  Anticonvulsant Activity Group Classification: II (Class II compounds show anticonvulsant activity at doses greater than 100 mg/kg or show activity at 100 mg/kg which is not reinforced by similar activity at 300 mg/kg)

## COc1ccc(-n2nncc2-c2ccncc2)cc1 [Compound 6, 1-(p-Anisyl)-5-(4-pyridyl)-1H--1,2,3-triazole]
[1]
  Anticonvulsant Activity Group Classification: II (Class II compounds show anticonvulsant activity at doses greater than 100 mg/kg or show activity at 100 mg/kg which is not reinforced by similar activity at 300 mg/kg)

## Clc1ccc(-n2nncc2-c2ccncc2)cc1Cl [Compound 8, 1-(3,4-Dichlorophenyl)-5-(4-pyridyl)-1H--1,2,3-triazole]
[1]
  protection: 100%
  signs of neurological deficit: without any signs of neurological deficit
  Anticonvulsant Activity Group Classification: II (Class II compounds show anticonvulsant activity at doses greater than 100 mg/kg or show activity at 100 mg/kg which is not reinforced by similar activity at 300 mg/kg)

## Brc1ccc(-n2nncc2-c2cccnc2)cc1 [Compound 11, 1-(p-bromophenyl)-5-(3-pyridyl)-1H-1,2,3-triazole]
[1]
  signs of neurological deficit: do not exhibit significant signs of neurological deficit

## Fc1ccc(-n2nncc2-c2cccnc2)cc1 [Compound 12, 1-(p-Fluorophenyl)-5-(3-pyridyl)-1H--1,2,3-triazole]
[1]
  signs of neurological deficit: do not exhibit significant signs of neurological deficit

## Clc1ccc(-n2nncc2-c2cccnc2)cc1Cl [Compound 13, 1-(3,4-Dichlorophenyl)-5-(3-pyridyl)-1H--1,2,3-triazole]
[1]
  protection: 100%
  signs of neurological deficit: without any signs of neurological deficit
  Anticonvulsant Activity Group Classification: II (Class II compounds show anticonvulsant activity at doses greater than 100 mg/kg or show activity at 100 mg/kg which is not reinforced by similar activity at 300 mg/kg)

## Clc1ccc(-n2nncc2-c2ccccn2)cc1 [Compound 14, 1-(p-Chlorophenyl)-5-(2-pyridyl)-1H--1,2,3-triazole]
[1]
  signs of neurological deficit: do not exhibit significant signs of neurological deficit

## Cc1cccc(-n2nncc2-c2ccncc2)c1 [Compound 17, 1-(m-Tolyl)-5-(4-pyridyl)-1H--1,2,3-triazole]
[1]
  Anticonvulsant Activity Group Classification: II (Class II compounds show anticonvulsant activity at doses greater than 100 mg/kg or show activity at 100 mg/kg which is not reinforced by similar activity at 300 mg/kg)

## FC(F)(F)c1ccc(-n2nncc2-c2cccnc2)cc1 [Compound 19, 1-(p-Trifluoromethylphenyl)-5-(3-pyridyl)-1H--1,2,3-triazole]
[1]
  Anticonvulsant Activity Group Classification: II (Class II compounds show anticonvulsant activity at doses greater than 100 mg/kg or show activity at 100 mg/kg which is not reinforced by similar activity at 300 mg/kg)

## CCC1(C)CC(=O)NC1=O (centres unmarked) [Ethosuximide]
[2]
  effectiveness by the sc Bic test: had to be given in toxic doses to protect against sc Bic seizures
[3]
  effectiveness by the sc Pic test: effective
[4]
  animals protected in the sc Strych test: ≤ 62%
[5]; mouse, in vivo, ip
  HD50 (righting reflex): 850.61(751.19-917.93) mg/kg
[5]; mouse, in vivo, ip, HD50 (righting reflex)
  TD50: 851 mg/kg
[18]
  Rotorod TD50: 440.83(383.09-485.34) mg/kg
mice, i.p., 95% confidence interval, listed as ethosuximide
  Rotorod TD50: 440.83 mg/kg
mouse, in vivo, ip
  Rotorod TD50: 44,.83(383.09-485.34) mg/kg
mouse, in vivo, po
  TD50: 879,21 mg/kg
In vivo [6]
  TD50: 879 mg/kg
In vivo [7]
  LD50 at 24 h: 1750 mg/kg
[8]; mice, i.p.
  protection from maximal electroshock seizures: not able to protect mice from maximal electroshock seizures
[8]; [18]
  MES ED50: > 1000 mg/kg
[9]; mice, i.p.
  effectiveness by the sc Met test: effective
[9]; [18]
  sc Met ED50: 130.35 mg/kg and 130.35(110.99-150.45) mg/kg
[9]; mice, p.o.
  sc Met ED50: 192.21 mg/kg
[10]
  Profile of acute toxicity, 1 x TD50: Uncoordinated
  Profile of acute toxicity, 2 x TD50: Uncoordinated
  Profile of acute toxicity, 4 x TD50: Uncoordinated

## C1CCc2nnnn2CC1 [Metrazol]
[11]
  sc CD97: 85 mg/kg
[12]
  ED97: 70 mg/kg

## CCC1(c2ccccc2)C(=O)NC(=O)NC1=O [Phenobarbital]
[2]
  effectiveness by the sc Bic test: effective by all four anticonvulsant tests
[2]; listed as phenobarbital
  effectiveness by the sc Bic test: effective by these tests
[3]
  effectiveness by the sc Pic test: effective by all four anticonvulsant tests
[3]; listed as phenobarbital
  effectiveness by the sc Pic test: effective by these tests
[4]
  effectiveness by the sc Strych test: had to be given in toxic doses in order to protect against this chemical convulsant
[4]; listed as phenobarbital
  effectiveness by the sc Strych test: effective by these tests
mice, i.p., MES
  TD3: 57
mice, i.p., sc Met
  TD3: 57
mice, oral, MES
  TD3: 58
mice, oral, sc Met
  TD3: 58
[8]; mice, i.p.
  ED97: 29
[8]; mice, oral
  ED97: 46
[13]; Rattus norvegicus, po
  ED97: 26 mg/kg
[13]; rats p.o., test not specified
  TPE: five
[9]; mice, i.p.
  ED97: 27
[9]; mice, oral
  ED97: 38
[14]
  ED97: 34
[10]
  Profile of acute toxicity, 1 x TD50: Ataxia with in-
  Profile of acute toxicity, 2 x TD50: Ataxia with in-
[15]; MES
  TD3: 14
[15]; sc Met
  TD3: 14

## O=C1NC(=O)C(c2ccccc2)(c2ccccc2)N1 [Phenytoin]
[2]
  effectiveness by the sc Bic test: ineffective
[3]
  effectiveness by the sc Pic test: ineffective
[4]
  animals protected in the sc Strych test: 50%
[5]; [18]
  HD50 (righting reflex): 178.34(152.93-195.45) mg/kg
[5]; mice, i.p., 95% confidence interval, listed as phenytoin
  HD50 (righting reflex): 178.34 mg/kg
[5]; mouse, in vivo, ip
  time of peak toxicity (TPE), righting reflex: 12 h
mouse, in vivo, ip
  time of peak toxicity, rotorod: 2 h
[16]
  absorption from the gastrointestinal tract: absorbed only to a limited extent
In vivo [17]
  TD50: > 3000 mg/kg
[9]; mice i.p., listed as phenytoin
  effectiveness by the sc Met test: did not protect against subcutaneous Metrazol seizures
[9]; mice, i.p.
  effectiveness by the sc Met test: ineffective
[9]; [18]
  sc Met ED50: > 300 mg/kg
[14]; p.o.
  effectiveness by the sc Met test: ineffective
[10]
  Profile of acute toxicity, 1 x TD50: activity, slight ataxia, fre-
  Profile of acute toxicity, 2 x TD50: Mild ataxia,

## CCCC(CCC)C(=O)O [Valproate]
[2]
  effectiveness by the sc Bic test: effective by all four anticonvulsant tests; also recorded: effective by these tests
[3]
  effectiveness by the sc Pic test: effective by all four anticonvulsant tests; also recorded: effective by these tests
[4]
  effectiveness by the sc Strych test: effective against strychnine in nontoxic doses; also recorded: effective by these tests
[5]; [18]
  HD50 (righting reflex): 885.53 mg/kg and 885.53(820.86-947.04) mg/kg
[5]; mouse, in vivo, ip, mice, i.p., 95% confidence interval, read-out: HD50 (righting reflex)
  TD50: 886 mg/kg
mice, i.p., MES
  TD3: 345
mice, i.p., sc Met
  TD3: 345
mice, oral, MES
  TD3: 500
mice, oral, sc Met
  TD3: 500
[8]; mice i.p.
  TPE: one-fourth
[8]; mice p.o.
  TPE: one to two
[8]; mice, i.p.
  ED97: 380
[8]; [18]
  MES ED50: 271.66(246.97-337.89) mg/kg
[8]; mice, i.p., 95% confidence interval, listed as valproate
  MES ED50: 271.66 mg/kg
[8]; mice, oral
  ED97: 840
[8]; mice, p.o.
  MES ED50: 664.80 mg/kg
[9]; mice, i.p.
  effectiveness by the sc Met test: effective by all four anticonvulsant tests
  ED97: 218
[9]; [18]
  sc Met ED50: 148.59(122.64-177.02) mg/kg
[9]; mice, oral
  ED97: 680
[9]; mice, p.o.
  sc Met ED50: 388.31 mg/kg
[14]
  ED97: 188
[10]
  Profile of acute toxicity, 1 x TD50: Mild ataxia
  Profile of acute toxicity, 2 x TD50: Ataxia
  Profile of acute toxicity, 4 x TD50: Both animals died.
[15]; MES
  TD3: 115
[15]; sc Met
  TD3: 115

## CN1CCc2cc3c(cc2[C@H]1[C@@H]1OC(=O)c2c1ccc1c2OCO1)OCO3 [bicuculline]
[11]
  sc CD97: 2.70 mg/kg

## O=C1C[C@@H]2OCC=C3CN4CC[C@]56c7ccccc7N1[C@H]5[C@H]2[C@H]3C[C@H]46 [strychnine]
[11]
  sc CD97: 1.20 mg/kg

## picrotoxin
[11]
  sc CD97: 3.15 mg/kg
